Paper PMC11378028 (RSC Advances, 2024)
In brackets after ≈: the same amount, converted by molar mass.

How the values were obtained:
[1] = target: human DNA topoisomerase IIα (Homo sapiens, UniProt P11388); experiment: human DNA topoisomerase IIα inhibition; format: biochemical
A. baumannii DNA gyrase = A. baumannii DNA gyrase (Acinetobacter baumannii, UniProt A0ABX6CA01); experiment: DNA gyrase supercoiling assay; format: biochemical
P. aeruginosa DNA gyrase = P. aeruginosa DNA gyrase (Pseudomonas aeruginosa, UniProt Q9I7C2); experiment: DNA gyrase supercoiling assay; format: biochemical
S. aureus ATCC 29213 [2] = experiment: MIC, broth microdilution; format: cell-based, Staphylococcus aureus; conditions: for MIC: Staphylococcus aureus, ATCC29213, read-out: MIC S. aureus ATCC 29213, broth microdilution
[3] = system: S. aureus ATCC 43300 (MRSA); experiment: MIC, broth microdilution; format: cell-based; conditions: Staphylococcus aureus, ATCC43300|MRSA, read-out: MIC S. aureus ATCC 43300 (MRSA)
E. faecalis ATCC 29212 = experiment: MIC, broth microdilution; format: cell-based; conditions: Enterococcus faecalis, ATCC29212, read-out: MIC E. faecalis ATCC 29212
P. aeruginosa ATCC 27853 = experiment: MIC, broth microdilution; format: cell-based; conditions: Pseudomonas aeruginosa, ATCC27853, read-out: MIC P. aeruginosa ATCC 27853
K. pneumoniae ATCC 10031 [4] = experiment: MIC, broth microdilution; format: cell-based; conditions: Klebsiella pneumoniae, ATCC10031, read-out: MIC K. pneumoniae ATCC 10031
[5] = system: K. pneumoniae ATCC 700603; experiment: MIC, broth microdilution; format: cell-based; conditions: Klebsiella pneumoniae, ATCC700603, read-out: MIC K. pneumoniae ATCC 700603
[6] = system: E. spp. cloacae ATCC 13047; experiment: MIC, broth microdilution; format: cell-based; conditions: read-out: MIC E. spp. cloacae ATCC 13047
K. aerogenes ATCC 13408 = experiment: MIC, broth microdilution; format: cell-based; conditions: Klebsiella aerogenes, ATCC13408, read-out: MIC K. aerogenes ATCC 13408
MRSA clinical isolate-1 = experiment: MIC against fluoroquinolone-resistant clinical isolate; format: cell-based; conditions: Staphylococcus aureus, read-out: MIC MRSA clinical isolate-1
MRSA clinical isolate-2 = experiment: as above; format: cell-based; conditions: Staphylococcus aureus, read-out: MIC MRSA clinical isolate-2
K. pneumoniae NCTC 13440 = experiment: as above; format: cell-based; conditions: Klebsiella pneumoniae, NCTC13440, read-out: MIC K. pneumoniae NCTC 13440
K. pneumoniae SE K14 = experiment: as above; format: cell-based; conditions: Klebsiella pneumoniae, SEK14, read-out: MIC K. pneumoniae SE K14
K. pneumoniae K9–K25 = experiment: as above; format: cell-based; conditions: Klebsiella pneumoniae, read-out: MIC K. pneumoniae K9–K25
E. coli DNA gyrase = E. coli DNA gyrase (Escherichia coli, UniProt P0AES6); experiment: DNA gyrase supercoiling plate assay; format: biochemical; conditions: IC50 E. coli gyrase, supercoiling assay
S. aureus DNA gyrase = S. aureus DNA gyrase (Staphylococcus aureus, UniProt P0A0K8); experiment: DNA gyrase supercoiling plate assay; format: biochemical; conditions: read-out: RA (residual activity) S. aureus gyrase
E. coli topoisomerase IV = E. coli topoisomerase IV (Escherichia coli, UniProt P20083); experiment: topoisomerase IV relaxation plate assay; format: biochemical
[7] = target: S. aureus topoisomerase IV (Staphylococcus aureus, UniProt P0C1S7); experiment: topoisomerase IV relaxation plate assay; format: biochemical; conditions: read-out: RA (residual activity) S. aureus topo IV
E. faecium ATCC 35667 = experiment: MIC, broth microdilution; format: cell-based
E. coli ATCC 25922 = experiment: MIC, broth microdilution; format: cell-based; conditions: Escherichia coli, ATCC25922, read-out: MIC E. coli ATCC 25922
A. baumannii ATCC 19606 = experiment: MIC, broth microdilution; format: cell-based; conditions: Acinetobacter baumannii, ATCC19606, read-out: MIC A. baumannii ATCC 19606
K. pneumoniae SE K13 = experiment: MIC against fluoroquinolone-resistant clinical isolate; format: cell-based; conditions: Klebsiella pneumoniae, SEK13, read-out: MIC K. pneumoniae SE K13
S. aureus ATCC 29213 [8] = experiment: spontaneous frequency of resistance; format: cell-based, Staphylococcus aureus
K. pneumoniae ATCC 10031 [9] = experiment: spontaneous frequency of resistance; format: cell-based, Klebsiella pneumoniae
[10] = system: S. aureus ATCC 29213 adapted lines; experiment: MIC of adapted lines; conditions: colonies from frequency of resistance plates
A. baumannii ATCC 17978 = experiment: MIC, broth microdilution; format: cell-based; conditions: Acinetobacter baumannii, ATCC17978, read-out: MIC A. baumannii ATCC 17978
[11] = read-out: RA (residual activity) Human topo IIα

Chain of human DNA topoisomerase IIα (P11388 whole entry): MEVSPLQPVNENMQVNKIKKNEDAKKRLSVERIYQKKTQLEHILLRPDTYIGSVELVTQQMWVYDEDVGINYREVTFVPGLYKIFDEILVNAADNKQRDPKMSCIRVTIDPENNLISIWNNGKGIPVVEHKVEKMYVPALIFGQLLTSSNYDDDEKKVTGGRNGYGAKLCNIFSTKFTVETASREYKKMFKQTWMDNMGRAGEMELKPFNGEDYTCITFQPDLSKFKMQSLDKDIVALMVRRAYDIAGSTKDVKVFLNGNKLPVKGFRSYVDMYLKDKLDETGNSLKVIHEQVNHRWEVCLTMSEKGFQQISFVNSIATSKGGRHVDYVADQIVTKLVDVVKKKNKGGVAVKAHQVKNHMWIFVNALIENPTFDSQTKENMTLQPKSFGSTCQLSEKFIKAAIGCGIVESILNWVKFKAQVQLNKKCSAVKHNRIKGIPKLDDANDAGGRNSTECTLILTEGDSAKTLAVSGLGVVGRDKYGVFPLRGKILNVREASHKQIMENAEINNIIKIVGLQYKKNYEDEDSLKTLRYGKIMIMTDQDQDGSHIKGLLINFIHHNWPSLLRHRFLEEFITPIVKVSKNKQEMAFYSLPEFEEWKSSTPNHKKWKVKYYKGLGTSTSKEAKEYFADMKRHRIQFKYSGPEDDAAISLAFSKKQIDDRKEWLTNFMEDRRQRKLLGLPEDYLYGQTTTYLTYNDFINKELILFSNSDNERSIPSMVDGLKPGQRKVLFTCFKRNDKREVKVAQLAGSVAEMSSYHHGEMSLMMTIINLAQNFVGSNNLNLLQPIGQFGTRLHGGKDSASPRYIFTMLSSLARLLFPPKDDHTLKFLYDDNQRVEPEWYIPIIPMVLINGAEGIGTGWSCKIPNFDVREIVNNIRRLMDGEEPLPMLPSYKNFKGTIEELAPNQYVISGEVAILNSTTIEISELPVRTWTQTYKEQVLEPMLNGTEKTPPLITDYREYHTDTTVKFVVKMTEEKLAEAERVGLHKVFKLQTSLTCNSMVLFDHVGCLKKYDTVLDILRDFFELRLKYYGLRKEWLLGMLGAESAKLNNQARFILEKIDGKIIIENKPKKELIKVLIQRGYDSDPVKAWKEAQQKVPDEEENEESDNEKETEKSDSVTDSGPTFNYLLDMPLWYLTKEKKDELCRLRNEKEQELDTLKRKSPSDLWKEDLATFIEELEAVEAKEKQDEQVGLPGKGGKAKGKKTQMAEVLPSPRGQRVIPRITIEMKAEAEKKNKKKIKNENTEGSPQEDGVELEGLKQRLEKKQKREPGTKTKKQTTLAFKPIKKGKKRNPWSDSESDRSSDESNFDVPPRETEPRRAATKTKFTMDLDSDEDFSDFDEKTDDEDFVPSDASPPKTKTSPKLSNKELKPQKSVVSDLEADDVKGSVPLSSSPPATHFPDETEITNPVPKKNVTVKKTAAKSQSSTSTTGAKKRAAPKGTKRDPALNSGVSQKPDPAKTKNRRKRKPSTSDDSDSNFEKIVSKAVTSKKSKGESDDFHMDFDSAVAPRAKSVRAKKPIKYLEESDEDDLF
Chain of E. coli topoisomerase IV (P20083 whole entry): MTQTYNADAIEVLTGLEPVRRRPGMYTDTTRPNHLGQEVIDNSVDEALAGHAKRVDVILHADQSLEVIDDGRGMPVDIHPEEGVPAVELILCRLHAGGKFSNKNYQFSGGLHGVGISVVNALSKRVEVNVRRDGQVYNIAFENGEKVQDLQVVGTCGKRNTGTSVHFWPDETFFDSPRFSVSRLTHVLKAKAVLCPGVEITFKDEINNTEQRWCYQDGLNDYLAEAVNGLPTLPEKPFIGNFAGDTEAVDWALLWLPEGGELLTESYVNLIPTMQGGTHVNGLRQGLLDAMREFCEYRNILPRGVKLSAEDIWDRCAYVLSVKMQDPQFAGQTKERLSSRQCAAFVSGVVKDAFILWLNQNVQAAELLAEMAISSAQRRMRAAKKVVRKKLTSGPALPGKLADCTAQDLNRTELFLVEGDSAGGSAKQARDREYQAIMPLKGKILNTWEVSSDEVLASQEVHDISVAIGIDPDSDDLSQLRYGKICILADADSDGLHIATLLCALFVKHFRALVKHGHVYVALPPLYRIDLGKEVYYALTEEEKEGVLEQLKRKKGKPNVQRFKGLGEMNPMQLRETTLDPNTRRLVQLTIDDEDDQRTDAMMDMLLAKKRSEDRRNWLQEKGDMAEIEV
Chain of E. coli topoisomerase IV (P0AFI2 whole entry partner): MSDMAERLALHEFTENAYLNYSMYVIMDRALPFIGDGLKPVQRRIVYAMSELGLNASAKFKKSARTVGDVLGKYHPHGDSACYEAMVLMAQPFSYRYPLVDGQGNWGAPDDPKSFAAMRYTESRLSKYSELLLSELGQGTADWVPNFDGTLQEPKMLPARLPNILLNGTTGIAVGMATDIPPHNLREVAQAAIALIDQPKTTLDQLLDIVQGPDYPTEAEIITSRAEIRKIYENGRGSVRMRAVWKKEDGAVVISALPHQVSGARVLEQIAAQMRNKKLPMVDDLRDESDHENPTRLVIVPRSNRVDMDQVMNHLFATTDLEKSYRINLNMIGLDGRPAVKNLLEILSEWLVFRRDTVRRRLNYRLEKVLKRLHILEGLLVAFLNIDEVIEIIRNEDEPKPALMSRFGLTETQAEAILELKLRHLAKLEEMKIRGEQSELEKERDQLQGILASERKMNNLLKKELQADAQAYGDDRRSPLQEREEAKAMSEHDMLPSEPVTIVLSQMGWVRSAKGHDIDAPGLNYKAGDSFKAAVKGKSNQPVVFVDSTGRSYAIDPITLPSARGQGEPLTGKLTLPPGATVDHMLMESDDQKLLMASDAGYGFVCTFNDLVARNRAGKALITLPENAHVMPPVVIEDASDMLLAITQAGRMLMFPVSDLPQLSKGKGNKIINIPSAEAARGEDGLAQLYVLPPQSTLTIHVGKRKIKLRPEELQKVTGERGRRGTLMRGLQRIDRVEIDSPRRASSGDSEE
Chain of S. aureus DNA gyrase (P0A0K8 whole entry): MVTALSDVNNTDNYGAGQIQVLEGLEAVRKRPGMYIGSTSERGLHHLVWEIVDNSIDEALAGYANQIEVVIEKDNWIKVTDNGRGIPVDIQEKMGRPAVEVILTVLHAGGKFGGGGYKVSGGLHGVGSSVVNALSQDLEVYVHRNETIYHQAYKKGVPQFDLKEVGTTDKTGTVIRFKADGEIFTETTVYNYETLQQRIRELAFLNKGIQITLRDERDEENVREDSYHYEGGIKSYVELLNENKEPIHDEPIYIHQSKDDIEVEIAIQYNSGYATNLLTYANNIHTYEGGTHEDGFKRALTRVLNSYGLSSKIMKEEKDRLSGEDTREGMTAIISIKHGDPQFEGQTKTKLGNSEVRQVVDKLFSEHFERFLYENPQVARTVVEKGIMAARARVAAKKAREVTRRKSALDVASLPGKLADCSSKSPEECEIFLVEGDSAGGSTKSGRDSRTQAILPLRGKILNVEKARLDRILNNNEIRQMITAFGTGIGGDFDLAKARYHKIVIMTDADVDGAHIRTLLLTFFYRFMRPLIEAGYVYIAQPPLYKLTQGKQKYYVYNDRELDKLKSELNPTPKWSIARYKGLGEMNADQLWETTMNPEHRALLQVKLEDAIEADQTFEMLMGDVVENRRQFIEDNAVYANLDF
Chain of S. aureus DNA gyrase (P20831 whole entry partner): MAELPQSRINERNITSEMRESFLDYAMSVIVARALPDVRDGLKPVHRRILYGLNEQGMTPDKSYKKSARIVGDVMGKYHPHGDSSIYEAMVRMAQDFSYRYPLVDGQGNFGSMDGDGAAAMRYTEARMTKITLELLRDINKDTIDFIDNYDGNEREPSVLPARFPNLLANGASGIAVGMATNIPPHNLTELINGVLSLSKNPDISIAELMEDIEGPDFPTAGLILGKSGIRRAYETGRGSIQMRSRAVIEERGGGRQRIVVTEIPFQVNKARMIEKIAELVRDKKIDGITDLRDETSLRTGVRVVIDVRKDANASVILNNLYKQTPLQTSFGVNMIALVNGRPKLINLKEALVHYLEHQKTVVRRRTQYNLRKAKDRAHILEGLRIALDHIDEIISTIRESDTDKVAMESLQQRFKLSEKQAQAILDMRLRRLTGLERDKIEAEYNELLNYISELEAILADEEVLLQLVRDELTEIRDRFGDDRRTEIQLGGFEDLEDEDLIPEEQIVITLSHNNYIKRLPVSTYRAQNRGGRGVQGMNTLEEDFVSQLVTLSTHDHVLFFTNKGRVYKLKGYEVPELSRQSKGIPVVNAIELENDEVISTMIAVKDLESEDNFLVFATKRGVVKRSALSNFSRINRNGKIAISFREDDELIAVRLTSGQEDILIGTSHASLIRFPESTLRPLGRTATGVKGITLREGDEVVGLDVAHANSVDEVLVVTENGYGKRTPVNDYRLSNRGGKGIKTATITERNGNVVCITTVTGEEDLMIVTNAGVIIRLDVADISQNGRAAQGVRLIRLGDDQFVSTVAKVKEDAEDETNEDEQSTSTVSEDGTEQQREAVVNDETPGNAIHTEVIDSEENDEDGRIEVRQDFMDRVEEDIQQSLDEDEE

For `Cc1[nH]c(C(=O)Nc2ccc(-c3n[nH]c(=O)o3)cc2N2CC[C@H](N)C2)c(Cl)c1Cl.Cl` [Compound 23b, (S)-1-(2-(3,4-Dichloro-5-methyl-1H-pyrrole-2-carboxamido)-5-(5-oxo-4,5-dihydro-1,3,4-oxadiazol-2-yl)phenyl)pyrrolidin-3-aminium chloride], the IC50 [1] was 86300 nM, the IC50 (A. baumannii DNA gyrase) was 15.3 nM and the IC50 (P. aeruginosa DNA gyrase) was 3.63 nM. For the same compound, the MIC (S. aureus ATCC 29213 [2]) was 1 µg/mL, the MIC [3] was 2 µg/mL and the MIC (E. faecalis ATCC 29212) was 1 µg/mL. The MIC (P. aeruginosa ATCC 27853) was 32 µg/mL, the MIC (K. pneumoniae ATCC 10031 [4]) was 0.0625 µg/mL and the MIC [5] was > 32 µg/mL. The MIC [6] was 32 µg/mL, the MIC (K. aerogenes ATCC 13408) was > 32 µg/mL and the MIC (MRSA clinical isolate-1) was 4 µg/mL. The MIC (MRSA clinical isolate-2) was 2 µg/mL, the MIC (K. pneumoniae NCTC 13440) was > 64 µg/mL and the MIC (K. pneumoniae SE K14) was > 64 µg/mL. For the same compound, the MIC (K. pneumoniae K9–K25) was > 64 µg/mL.

In the case of `Cc1[nH]c(C(=O)Nc2ccc(C(=O)O)cc2N2CCCC(CN)C2)c(Cl)c1Cl.Cl` (stereo not drawn) [Compound 20i, (1-(5-Carboxy-2-(3,4-dichloro-5-methyl-1H-pyrrole-2-carboxamido)phenyl)piperidin-3-yl)methanaminium chloride], the IC50 (E. coli DNA gyrase) is reported as 6.34 nM, the remaining activity at 0.1 µM (S. aureus DNA gyrase) is reported as 28% and the IC50 (E. coli topoisomerase IV) is reported as 143 nM. The remaining activity at 1 µM [7] was 0%, the remaining activity at 100 µM [1, 11] was 28% and the “MIC E. faecium ATCC 35667” value (E. faecium ATCC 35667) was 32 µg/mL. The MIC (E. coli ATCC 25922) was > 32 µg/mL, the MIC (P. aeruginosa ATCC 27853) was > 32 µg/mL and the MIC (A. baumannii ATCC 19606) was > 32 µg/mL. The MIC [5] was > 32 µg/mL and the MIC (K. aerogenes ATCC 13408) was > 32 µg/mL.

Work on `Cc1[nH]c(C(=O)Nc2ccc(C(=O)O)cc2N2CCN(C(=O)OC(C)(C)C)CC2)c(Cl)c1Cl` [Compound 18a, 3-(4-(tert-Butoxycarbonyl)piperazin-1-yl)-4-(3,4-dichloro-5-methyl-1H-pyrrole-2-carboxamido)benzoic acid] yielded an IC50 (E. coli DNA gyrase) of 159 nM, a remaining activity at 1 µM (S. aureus DNA gyrase) of 54% and a remaining activity at 1 µM (E. coli topoisomerase IV; read-out: RA (residual activity) E. coli topo IV) of 99%. The remaining activity at 1 µM [7] was 21%, the MIC (S. aureus ATCC 29213 [2]) was 4 to 32 µg/mL (≈ 8.04 to 64.3 µM) and the “MIC S. aureus ATCC 29213” value (S. aureus ATCC 29213 [2]; broth microdilution) was 4 µg/mL (≈ 8.04 µM). The “MIC E. faecium ATCC 35667” value (E. faecium ATCC 35667) was 16 µg/mL (≈ 32.2 µM), the MIC (E. coli ATCC 25922) was > 32 µg/mL and the MIC (P. aeruginosa ATCC 27853) was > 32 µg/mL. The MIC (A. baumannii ATCC 19606) was > 32 µg/mL, the MIC [5] was > 32 µg/mL and the MIC (K. aerogenes ATCC 13408) was > 32 µg/mL.

`Cc1[nH]c(C(=O)Nc2ccc(-c3n[nH]c(=O)o3)cc2N2CCC[C@H](N)C2)c(Cl)c1Cl.Cl` [Compound 23c, (S)-1-(2-(3,4-Dichloro-5-methyl-1H-pyrrole-2-carboxamido)-5-(5-oxo-4,5-dihydro-1,3,4-oxadiazol-2-yl)phenyl)piperidin-3-aminium chloride] was tested, and the IC50 (E. coli topoisomerase IV) was 448 nM, the remaining activity at 50 µM [1, 11] was 90% and the MIC (S. aureus ATCC 29213 [2]) was 2 µg/mL. For the same compound, the MIC [3] was 2 µg/mL, the MIC (E. faecalis ATCC 29212) was 2 µg/mL and the MIC (A. baumannii ATCC 19606) was 4 µg/mL. For the same compound, the MIC (K. pneumoniae ATCC 10031 [4]) was 0.25 µg/mL, the MIC [5] was > 32 µg/mL and the MIC [6] was > 64 µg/mL. The MIC (K. aerogenes ATCC 13408) was > 32 µg/mL, the MIC (MRSA clinical isolate-1) was 4 µg/mL and the MIC (MRSA clinical isolate-2) was 2 µg/mL. The MIC (K. pneumoniae NCTC 13440) was > 64 µg/mL, the MIC (K. pneumoniae SE K13) was 32 µg/mL and the MIC (K. pneumoniae SE K14) was > 64 µg/mL. The MIC (K. pneumoniae K9–K25) was > 64 µg/mL, the “resistance-proneness compared to novobiocin” value (S. aureus ATCC 29213 [8]) was “significantly less resistance-prone compared to novobiocin” and the “resistance-proneness compared to novobiocin” value (K. pneumoniae ATCC 10031 [9]) was “significantly less resistance-prone compared to novobiocin”. The “change in MIC values compared to the ancestor” value [10] was 4 fold.

`Cc1[nH]c(C(=O)Nc2ccc(-c3n[nH]c(=O)o3)cc2N2CCNCC2)c(Cl)c1Cl.Cl` [Compound 23a, 4-(2-(3,4-Dichloro-5-methyl-1H-pyrrole-2-carboxamido)-5-(5-oxo-4,5-dihydro-1,3,4-oxadiazol-2-yl)phenyl)piperazin-1-ium chloride] gave a remaining activity at 100 µM [1, 11] of 86%, an MIC (S. aureus ATCC 29213 [2]) of 2 µg/mL and an MIC [3] of 4 µg/mL. The MIC (E. faecalis ATCC 29212) was 0.5 µg/mL, the MIC (E. coli ATCC 25922) was > 64 µg/mL and the MIC (P. aeruginosa ATCC 27853) was > 64 µg/mL. For the same compound, the MIC (A. baumannii ATCC 17978) was > 64 µg/mL, the MIC (K. pneumoniae ATCC 10031 [4]) was 0.25 µg/mL and the MIC [6] was > 64 µg/mL. The MIC (MRSA clinical isolate-1) was 4 µg/mL, the MIC (MRSA clinical isolate-2) was 2 µg/mL and the MIC (K. pneumoniae NCTC 13440) was > 64 µg/mL. For the same compound, the MIC (K. pneumoniae SE K13) was > 64 µg/mL, the MIC (K. pneumoniae SE K14) was > 64 µg/mL and the MIC (K. pneumoniae K9–K25) was > 64 µg/mL. For the same compound, the “resistance-proneness compared to novobiocin” value (S. aureus ATCC 29213 [8]) was “significantly less resistance-prone compared to novobiocin” and the “resistance-proneness compared to novobiocin” value (K. pneumoniae ATCC 10031 [9]) was “significantly less resistance-prone compared to novobiocin”.
